Measurements reported in patent US9745339B2 (GRAFFINITY PHARMACEUTICALS GMBH, priority 2012, dated 2017).

Experiments:
Palivizumab = test: Microtiter plate chromatography of resins: binding and elution of Palivizumab; conditions: fraction of injected protein bound; 0.5 mg/ml IgG in PBS pH 7.3
How it was run: (§1)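 About 30 μl resin columns loaded with 3.3 cv IgG at 0.5 mg ml^−1 in PBS (or undiluted HCP), washed with 5 cv PBS, eluted with 5 cv glycine pH 2.5. Fractions quantified by Bradford; bound fraction = (mi−mft)/mi, yield = me/mi.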

Tocilizumab = test: Microtiter plate chromatography of resins: binding and elution of Tocilizumab; conditions: fraction of injected protein bound; 0.5 mg/ml IgG in PBS pH 7.3
How it was run: as §1

host cell proteins (HCP) = test: Microtiter plate chromatography of resins: binding of host cell proteins; design: species or system CHO cell culture; conditions: fraction of injected undiluted host cell proteins bound
How it was run: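 Undiluted HCP-containing flowthrough from protein A chromatography of CHO serum-free culture was loaded onto ~30 µl packed resin columns in microtiter-plate format. Columns were washed with 5 cv PBS and eluted with glycine pH 2.5, and fractions were quantified by Bradford. Bound fraction = (injected − flowthrough mass)/injected mass.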

Cetuximab = test: Microtiter plate chromatography of resins: binding and elution of Cetuximab; conditions: fraction of injected protein bound; 0.5 mg/ml IgG in PBS pH 7.3
How it was run: as §1

[1] = Alkaline stability of ligands in 0.5 M sodium hydroxide; format: physicochemical; conditions: 25° C., 8 days, hydrolysis monitored by LC-MS, read-out: t0.5 (half-life) (converted)
Description: A subset of ligands from Example 1 was tested for its alkaline stability. Ligands were treated with 0.5 M sodium hydroxide at 25° C. for 8 days. Hydrolysis was monitored by LC-MS analysis.

[2] = system: poly-IgG from human serum (h-poly-IgG); test: Microtiter plate chromatography of resins: binding and elution of human poly-IgG; conditions: fraction of injected protein bound; 0.5 mg/ml IgG in PBS pH 7.3
How it was run: as §1

Bevacizumab [3] = molecular target: T1, Bevacizumab (Homo sapiens, UniProt P01857); test: Langmuir isotherms by batch adsorption; format: binding; conditions: for Kd: Bevacizumab 0.05-5 mg/ml in PBS pH 7.3, 25° C., at least 3 h, read-out: kd (dissociation constant, Langmuir isotherm) (converted); for qm (maximum capacity): mg Bevacizumab per ml of resin, Langmuir isotherm
T1 construct: 0.5 mg/ml IgG in PBS pH 7.3; ligand immobilized on SEPHAR; Bevacizumab Yield; other: mass eluted (glycine pH 2.5) / mass injected; kd (dissociation constant, Langmuir isotherm); other: Bevacizumab 0.05-5 mg/ml in PBS pH 7.3, 25° C., at least 3 h; qm (maximum capacity); other: mg Bevacizumab per ml of resin; Langmuir isotherm; t0; fused on or other part: Humanized anti-VEGF-A VH domain joined N-terminally to the IGHG1 constant region (engineered, no UniProt entry)
Description: Experiments were performed with Bevacizumab as antibody. Parameters of Langmuir isotherms for purified antibody were determined by batch adsorption experiments in 96-well microtiter plates. In each well, 10 μl of sorbent slurry (50% v/v) were mixed with 100 μl of protein solution. Initial concentrations varied from 0.05-5 mg/ml in phosphate-buffered saline (0.15 M NaCl, 20 mM phosphate buffer, pH 7.3; PBS). Reactions were agitated vigorously at 25° C. for at least 3 h. Afterwards, antibody concentration in the supernatants were measured by Bradford assay. Data was evaluated by direct fitting of the values with the Langmuir isotherm equation (1).
Parameters of Langmuir isotherms, i.e. dissociation constants Kd and maximum capacities qm, were determined from the measured concentrations in the supernatants. Parameters were estimated by numerical fitting of the model equation derived by Chase (1)

Bevacizumab [4] = molecular target: T1, Bevacizumab; test: Microtiter plate chromatography of resins: binding and elution of Bevacizumab; conditions: for Bevacizumab Bound: fraction of injected protein bound, 0.5 mg/ml IgG in PBS pH 7.3, ligand immobilized on SEPHAROSE 4 FF; for Bevacizumab Yield: mass eluted (glycine pH 2.5) / mass injected
How it was run: (§2)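 About 30 μl packed resin columns loaded with 3.3 cv IgG at 0.5 mg ml^−1 in PBS or undiluted HCP, washed with 5 cv PBS, eluted with 5 cv glycine pH 2.5. Protein in fractions by Bradford. Bound fraction = (injected − flowthrough)/injected; yield = eluted/injected; selectivity = Bevacizumab bound fraction / HCP bound fraction, truncated beyond 10.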

Bevacizumab [5] = molecular target: T1, Bevacizumab; test: Uptake kinetics by batch adsorption (time-scale of binding); conditions: time after which 80% of equilibrium saturation occurred; 0.75 mg/ml Bevacizumab in PBS, 25° C.
Description: Uptake kinetics was investigated similarly by batch adsorption in 96-well filter plates. Again, 10 μl of sorbent slurry (50% v/v) were mixed with 100 μl of protein solution. […] Reactions were agitated vigorously at 25° C. for up to 80 min. Supernatants were separated rapidly by spinning through filters after 2.5, 5, 10, 20, 40 and 80 minutes and sampled for analysis. Concentrations of the antibody were analyzed by Bradford assay.
For determination of t0.8, measured concentrations in the supernatant were interpolated by fitting of double-exponentials and values of t0.8 were read out from graphs (2).

Bevacizumab [6] = test: Microtiter plate chromatography of resins: binding and elution of Bevacizumab; conditions: fraction of bound Bevacizumab divided by fraction of bound HCP; truncated for values beyond 10
How it was run: as §2

| Palivizumab Bound (Palivizumab) [%] | Tocilizumab Bound (Tocilizumab) [%] | Cetuximab Bound (Cetuximab) [%] | half-life [1] [days] | h-poly-IgG Bound [2] [%] | Kd (Bevacizumab [3]) [µM] | qm (maximum capacity) (Bevacizumab [3]) [mg/mL] | Bevacizumab Bound (Bevacizumab [4]) [%] | Bevacizumab Yield (Bevacizumab [4]) [%] | t0.8 (time-scale of binding) (Bevacizumab [5]) [min] | SMILES | HCP Bound (host cell proteins (HCP)) [%] | Selectivity (Bevacizumab [6]) |
| --- | --- | --- | --- | --- | --- | --- | --- | --- | --- | --- | --- | --- |
| 99 | 100 | 100 | 35 | 100 | 210 | 40 | 100 | 90 | 9.2 | Cn1nc(C(=O)Nc2ccc3c(c2)ncn3CCCN)c2ccccc21 [Ligand L01, 1-(3-Amino-1-propyl)-5-[(1-methylindazol-3-yl)carboxamido]benzimidazole] | 33 | – |
| 91 | 100 | 100 | > 41.6 | 100 | 324 | 41 | 100 | 101 | – | Cn1nc(NC(=O)c2ccc3c(c2)ncn3CCCN)c2ccccc21 [Ligand L02, 1-(3-Amino-1-propyl)benzimidazole-5-carboxylic acid N-(1-methyl-3-indazolyl) amide] | 28 | – |
| 90 | 100 | 100 | > 41.6 | 94 | 200 | 38 | 100 | 93 | 8.8 | CCc1nnc(NC(=O)c2ccc3c(c2)ncn3CCCN)s1 [Ligand L07, 1-(3-Amino-1-propyl)benzimidazole-5-carboxylic acid N-(2-ethyl-1,3,4-thiadiazol-5-yl) amide] | 23 | – |
| 97 | 100 | 100 | > 41.6 | 97 | – | 37 | 100 | 98 | 7.0 | NCCCn1cnc2cc(C(=O)Nc3nncs3)ccc21 [Ligand L13, 1-(3-Amino-1-propyl)benzimidazole-5-carboxylic acid N-(1,3,4-thiadiazol-2-yl) amide] | 21 | – |
| 89 | 100 | 100 | > 41.6 | 92 | 212 | 35 | 100 | 100 | – | Cc1nnc(NC(=O)c2ccc3c(c2)ncn3CCCN)s1 [Ligand L14, 1-(3-Amino-1-propyl)benzimidazole-5-carboxylic acid N-(2-methyl-1,3,4-thiadiazol-5-yl) amide] | 16 | – |
| 99 | 100 | 100 | > 41.6 | 98 | 578 | 42 | 100 | 98 | 8.9 | NCCCNc1ccc(C(=O)Nc2nnc(-c3ccco3)s2)cn1 [Ligand L19, 6-[(3-Amino-1-propyl)amino]nicotinic acid N-[5-(2-furyl)-1,3,4-thiadiazol-2-yl]amide] | 14 | – |
| 100 | 100 | 100 | > 41.6 | 100 | 122 | 46 | 100 | 107 | 7.7 | NCCCn1cnc2cc(C(=O)Nc3nc(-c4ccccn4)cs3)ccc21 [Ligand L23, 1-(3-Amino-1-propyl)benzimidazole-5-carboxylic acid N-[4-(2-pyridyl)thiazol-2-yl] amide] | 13 | – |
| 100 | 100 | 100 | > 41.6 | 100 | 583 | 42 | 100 | 101 | 9.4 | NCCCn1c(=O)[nH]c2cc(C(=O)Nc3nnc(-c4ccco4)s3)ccc21 [Ligand L24, 1-(3-Amino-1-propyl)-2-oxo-2,3-dihydrobenzimidazole-5-carboxylic acid N-[5-(2-furyl)-1,3,4-thiadiazol-2-yl] amide] | 12 | – |
| 93 | 100 | 100 | 37.6 | 94 | 358 | 40 | 100 | 100 | 9.3 | NCCCn1cnc2cc(NC(=O)c3cn4ccsc4n3)ccc21 [Ligand L30, 1-(3-Amino-1-propyl)-5-[(imidazo-[2,1-b]thiazol-6-yl)carboxamido]benzimidazole] | 21 | – |
| 93 | 90 | 99 | > 41.6 | 81 | 740 | 35 | 100 | 104 | – | Cc1nsc(NC(=O)c2ccc3c(c2)ncn3CCCN)n1 [Ligand L36, 1-(3-Amino-1-propyl)benzimidazole-5-carboxylic acid N-(3-methyl-1,2,4-thiadiazol-5-yl) amide] | 9 | – |
| 100 | 100 | 100 | > 41.6 | 100 | – | – | 100 | 93 | – | COc1nc2cc(C(=O)Nc3nnc(-c4ccco4)s3)ccc2n1CCCN [Ligand L45, 1-(3-Amino-1-propyl)-2-methoxybenzimidazole-5-carboxylic acid N-[5-(2-furyl)-1,3,4-thiadiazol-2-yl] amide] | 15 | 6.7 |

| SMILES | Palivizumab Bound (Palivizumab) [%] | Tocilizumab Bound (Tocilizumab) [%] | Cetuximab Bound (Cetuximab) [%] | half-life [1] [days] | h-poly-IgG Bound [2] [%] | Kd (Bevacizumab [3]) [µM] | qm (maximum capacity) (Bevacizumab [3]) [mg/mL] | Bevacizumab Bound (Bevacizumab [4]) [%] | Bevacizumab Yield (Bevacizumab [4]) [%] | t0.8 (time-scale of binding) (Bevacizumab [5]) [min] | HCP Bound (host cell proteins (HCP)) [%] | Selectivity (Bevacizumab [6]) |
| --- | --- | --- | --- | --- | --- | --- | --- | --- | --- | --- | --- | --- |
| COc1ccc(NC(=O)c2nn(CCCN)c3ccccc23)cc1C(N)=O [Ligand L04, 1-(3-Amino-1-propyl)indazole-3-carboxylic acid N-(3-carbamoyl-4-methoxyphenyl) amide] | 85 | 100 | 100 | > 41.6 | 100 | – | – | 100 | 98 | – | 28 | 3.6 |
